Experimental data as given in DBAASP.
Converted amounts (≈) assume the structure as drawn. Values belong to the compound of their own block, whether it stands above or below them.

Tests used:
Assay in all cases: ≥ marks a high value that may be exact or a test limit, other limits are often not marked, values filed in µg/mL are converted to µM
[1] = test system: Escherichia coli K12 MG1655
Streptococcus mutans = test system: Streptococcus mutans
[2] = test system: Pseudomonas aeruginosa ATCC 27853
[3] = test system: Candida albicans ATCC 2002
[4] = test system: Staphylococcus aureus ATCC 25923
[5] = test system: Escherichia coli DH5alpha
[6] = test system: Pseudomonas aeruginosa CMCCB 10104
[7] = test system: Escherichia coli ATCC 25922
Staphylococcus aureus = test system: Staphylococcus aureus
Bacillus subtilis 168 = test system: Bacillus subtilis 168
[8] = test system: Candida albicans F7-39/IDE99
Pseudomonas aeruginosa = test system: Pseudomonas aeruginosa
Escherichia coli B = test system: Escherichia coli B
Leuconostoc lactis = test system: Leuconostoc lactis
[9] = test system: Enterococcus faecalis ATCC 29212
[10] = test system: Escherichia coli ATCC 25726
Bacillus cereus = test system: Bacillus cereus
[11] = test system: Staphylococcus aureus ATCC 2592
Shigella dysenteriae = test system: Shigella dysenteriae

MIC [1]: ≥ 71.1 µM
Structure (SMILES): CC[C@H](C)[C@H](NC(=O)[C@H](C)N)C(=O)N[C@@H](C)C(=O)N[C@@H](CCCN=C(N)N)C(=O)N[C@H](C(=O)N[C@@H](CCCN=C(N)N)C(=O)N[C@@H](CCCN=C(N)N)C(=O)N[C@@H](CCCN=C(N)N)C(=O)N[C@@H](CC(C)C)C(=O)N[C@@H](CC(C)C)C(=O)N[C@@H](CC(C)C)C(=O)N[C@@H](Cc1ccc(O)cc1)C(=O)N[C@@H](CC(C)C)C(=O)N[C@@H](CC(C)C)C(=O)N[C@@H](C)C(=O)O)[C@@H](C)O [AIARTRRRLLLYLLA]

MIC (Streptococcus mutans): ≥ 85.7 µM
Structure (SMILES): C[C@H](N)C(=O)N[C@@H](CCC(N)=O)C(=O)N[C@@H](C)C(=O)N[C@@H](C)C(=O)N[C@@H](Cc1cnc[nH]1)C(=O)N[C@@H](CCC(N)=O)C(=O)N[C@@H](C)C(=O)N[C@@H](C)C(=O)N[C@@H](Cc1cnc[nH]1)C(=O)N[C@@H](C)C(=O)N[C@@H](C)C(=O)N[C@@H](Cc1cnc[nH]1)C(=O)N[C@@H](CCC(N)=O)C(=O)N[C@@H](Cc1ccccc1)C(N)=O [AQAAHQAAHAAHQF]

MIC [2]: 50 µM (≈ 108 µg/mL) | MIC [3]: 0.742 µM (≈ 1.6 µg/mL) | MIC [4]: 0.742 µM (≈ 1.6 µg/mL) | MIC [5]: ≥ 50 µM | MIC [6]: 1.48 µM (≈ 3.2 µg/mL) | MIC [7]: 1.48 µM (≈ 3.2 µg/mL)
Structure (SMILES): CC[C@H](C)[C@H](NC(=O)[C@H](Cc1cnc[nH]1)NC(=O)[C@H](C)NC(=O)[C@H](CCSC)NC(=O)[C@H](CC(N)=O)NC(=O)[C@H](CCCCN)NC(=O)[C@H](CCCCN)NC(=O)[C@@H](NC(=O)[C@@H](NC(=O)[C@H](CCCCN)NC(=O)[C@H](C)NC(=O)[C@H](Cc1ccccc1)NC(=O)[C@H](CC(C)C)NC(=O)[C@H](CCCCN)NC(=O)[C@@H]1CCCN1C(=O)[C@H](CC(C)C)NC(=O)[C@@H](N)Cc1ccccc1)[C@@H](C)CC)[C@@H](C)O)C(=O)N[C@@H](CCCN=C(N)N)C(=O)O [FLPKLFAKITKKNMAHIR]

MIC [4]: 20 µM (≈ 50 µg/mL) | MIC [10]: ≥ 40 µM
Structure (SMILES): CC[C@H](C)[C@H](N)C(=O)N[C@H](C(=O)N[C@H](C(=O)N1CCC[C@H]1C(=O)N1CCC[C@H]1C(=O)N[C@H](C(=O)N[C@H](C(=O)N[C@@H](CCCCN)C(=O)N[C@@H](CC(=O)O)C(=O)N[C@H](C(=O)N[C@@H](CC(C)C)C(=O)N[C@@H](CCCCN)C(=O)N[C@@H](CCCCN)C(=O)N[C@@H](Cc1ccccc1)C(=O)N[C@H](C(=O)N[C@@H](CCCCN)C(=O)NCC(=O)N[C@@H](C)C(=O)N[C@H](C(=O)N[C@@H](CO)C(=O)N[C@@H](CO)C(=O)N[C@H](C(=O)N[C@@H](CCSC)C(N)=O)C(C)C)[C@@H](C)CC)[C@@H](C)CC)[C@@H](C)O)C(C)C)[C@@H](C)CC)[C@@H](C)CC)[C@@H](C)O [ITIPPIVKDTLKKFIKGAISSVM]

MIC (Bacillus cereus): 6.53 µM (≈ 12.5 µg/mL) | MIC [3]: 3.27 µM (≈ 6.24 µg/mL) | MIC [11]: 3.27 µM (≈ 6.24 µg/mL) | MIC [7]: 26.1 µM (≈ 49.9 µg/mL) | MIC (Shigella dysenteriae): 1.62 µM (≈ 3.1 µg/mL) | MIC (Pseudomonas aeruginosa): 3.27 µM (≈ 6.25 µg/mL)
Structure (SMILES): CC(C)C[C@H](NC(=O)[C@H](C)NC(=O)[C@@H](N)CC(N)=O)C(=O)N[C@@H](CO)C(=O)N[C@@H](CO)C(=O)N1CCC[C@H]1C(=O)N[C@@H](CCCN=C(N)N)C(=O)N[C@@H](CC(N)=O)C(=O)N[C@@H](CCCCN)C(=O)N[C@H]1CSSC[C@@H](C(=O)N[C@@H](Cc2ccccc2)C(=O)NCC(=O)O)NC(=O)[C@H](CO)NC(=O)[C@H](CO)NC(=O)[C@H](C)NC(=O)[C@H](CCCN=C(N)N)NC(=O)[C@H](CC(=O)O)NC1=O [NALSSPRNKCDRASSCFG]

MIC (Streptococcus mutans): ≥ 42.1 µM
Structure (SMILES): CC(C)C[C@H](NC(=O)[C@H](Cc1cnc[nH]1)NC(=O)[C@H](CCCCN)NC(=O)[C@H](Cc1ccccc1)NC(=O)[C@H](CCCN=C(N)N)NC(=O)[C@H](CCCCN)NC(=O)[C@H](CC(C)C)NC(=O)[C@H](CC(C)C)NC(=O)[C@@H](N)CCCN=C(N)N)C(=O)N[C@@H](Cc1ccccc1)C(=O)N[C@@H](CCCCN)C(=O)O [RLLKRFKHLFK]

MIC (Streptococcus mutans): 11.5 µM (≈ 32 µg/mL)
Structure (SMILES): NC(=O)[C@H](Cc1ccccc1)NC(=O)[C@H](Cc1c[nH]c2ccccc12)NC(=O)[C@H](Cc1c[nH]c2ccccc12)NC(=O)[C@H](Cc1c[nH]c2ccccc12)NC(=O)[C@H](CCCN=C(N)N)NC(=O)[C@H](CCCN=C(N)N)NC(=O)[C@H](CCCN=C(N)N)NC(=O)[C@@H]1CCCN1C(=O)[C@H](CO)NC(=O)CNC(=O)[C@H](CO)NC(=O)[C@@H]1CCCN1C(=O)[C@H](Cc1ccccc1)NC(=O)[C@H](Cc1c[nH]c2ccccc12)NC(=O)[C@H](Cc1c[nH]c2ccccc12)NC(=O)[C@H](Cc1c[nH]c2ccccc12)NC(=O)[C@H](CCCN=C(N)N)NC(=O)[C@H](CCCN=C(N)N)NC(=O)[C@@H](N)CCCN=C(N)N [RRRWWWFPSGSPRRRWWWF]

MIC [3]: 1.97 µM (≈ 6.6 µg/mL) | MIC [4]: 1.97 µM (≈ 6.6 µg/mL) | MIC [6]: 1.97 µM (≈ 6.6 µg/mL) | MIC [7]: 3.93 µM (≈ 13.2 µg/mL)
Structure (SMILES): CC[C@H](C)[C@H](NC(=O)[C@H](C)NC(=O)[C@H](CC(C)C)NC(=O)[C@H](CC(N)=O)NC(=O)[C@H](CCCCN)NC(=O)[C@H](CC(C)C)NC(=O)[C@@H](NC(=O)[C@H](CC(=O)O)NC(=O)[C@H](CC(C)C)NC(=O)[C@H](Cc1ccccc1)NC(=O)[C@@H](N)CO)[C@@H](C)O)C(=O)N[C@@H](CO)C(=O)N[C@@H](C)C(=O)N[C@@H](C)C(=O)N[C@@H](CCCCN)C(=O)NCC(=O)N[C@@H](C)C(=O)NCC(=O)N[C@@H](CCC(N)=O)C(=O)N[C@@H](CO)C(=O)N[C@H](C(=O)N[C@@H](CC(C)C)C(=O)N[C@@H](CO)C(=O)N[C@H](C(=O)N[C@@H](CC(C)C)C(=O)N[C@@H](CO)C(=O)N[C@H]1CSSC[C@@H](C(=O)O)NC(=O)[C@H]([C@@H](C)O)NC(=O)[C@H](CCC(=O)O)NC(=O)[C@H](CO)NC(=O)[C@H](CC(C)C)NC(=O)[C@H](CCCCN)NC1=O)[C@@H](C)O)C(C)C [SFLDTLKNLAISAAKGAGQSVLSTLSCKLSETC]

Further lines, the compound ahead of its results:

Structure (SMILES): CC[C@H](C)[C@H](NC(=O)[C@H](CC(C)C)NC(=O)[C@H](Cc1cnc[nH]1)NC(=O)CNC(=O)[C@H](CC(C)C)NC(=O)[C@@H](NC(=O)[C@H](CCCCN)NC(=O)[C@H](CO)NC(=O)[C@H](Cc1c[nH]c2ccccc12)NC(=O)[C@H](CCCCN)NC(=O)CN)[C@@H](C)CC)C(=O)N[C@@H](CCCN=C(N)N)C(N)=O [GKWSKILGHLIR]
MIC (Staphylococcus aureus): 23.3 µM (≈ 32.8 µg/mL) | MIC (Bacillus subtilis 168): 2 µM (≈ 2.81 µg/mL) | MIC [8]: 7.4 µM (≈ 10.4 µg/mL) | MIC (Pseudomonas aeruginosa): 71.7 µM (≈ 101 µg/mL) | MIC (Escherichia coli B): 3.7 µM (≈ 5.2 µg/mL)

Structure (SMILES): CC[C@H](C)[C@H](NC(=O)CNC(=O)[C@@H](NC(=O)[C@@H](NC(=O)[C@H](Cc1cnc[nH]1)NC(=O)[C@H](CCCCN)NC(=O)[C@H](C)NC(=O)[C@H](CC(C)C)NC(=O)[C@H](CC(=O)O)NC(=O)[C@H](CC(C)C)NC(=O)[C@H](CC(C)C)NC(=O)CN)C(C)C)[C@@H](C)CC)C(=O)N[C@@H](C)C(=O)N[C@@H](CO)C(=O)N[C@@H](CCCCN)C(=O)N[C@@H](CC(C)C)C(N)=O [GLLDLAKHVIGIASKL]
MIC (Leuconostoc lactis): ≥ 100 µM | MIC [9]: 100 µM (≈ 165 µg/mL)

Structure (SMILES): CSCC[C@@H]1NC(=O)[C@H](C(C)C)NC(=O)[C@H](C)NC(=O)[C@H](CCCN=C(N)N)NC(=O)[C@H](Cc2ccccc2)NC(=O)CNC(=O)CNC(=O)[C@H](CCCCN)NC(=O)[C@@H](NC(=O)[C@H](CCCN=C(N)N)NC(=O)[C@@H]2CCCN2C(=O)[C@H](CCSC)NC(=O)[C@H](CO)NC(=O)[C@H](Cc2ccc(O)cc2)NC(=O)[C@H](C)NC(=O)[C@@H](N)CCCCN)CSSC[C@@H](C(=O)N[C@@H](Cc2c[nH]c3ccccc23)C(=O)N[C@@H](CC(C)C)C(N)=O)NC1=O [KAYSMPRCKGGFRAVMCWL]
MIC (Bacillus cereus): 22.7 µM (≈ 49.9 µg/mL) | MIC [3]: 22.7 µM (≈ 49.9 µg/mL) | MIC [11]: 11.3 µM (≈ 25 µg/mL) | MIC [7]: 5.67 µM (≈ 12.5 µg/mL) | MIC (Shigella dysenteriae): 5.67 µM (≈ 12.5 µg/mL) | MIC (Pseudomonas aeruginosa): 22.7 µM (≈ 49.9 µg/mL)

Structure (SMILES): CSCC[C@H](NC(=O)CNC(=O)[C@H](Cc1ccccc1)NC(=O)[C@@H](N)CC(C)C)C(=O)N[C@@H](C)C(=O)N[C@@H](CC(C)C)C(=O)N[C@@H](CCCCN)C(=O)N[C@@H](CC(C)C)C(=O)N[C@@H](CC(C)C)C(=O)N[C@@H](CCCCN)C(=O)N[C@@H](CCCCN)C(=O)N[C@H](C(=O)N[C@@H](CC(C)C)C(N)=O)C(C)C [LFGMALKLLKKVL]
MIC (Staphylococcus aureus): 2.3 µM (≈ 3.39 µg/mL) | MIC (Bacillus subtilis 168): 1.5 µM (≈ 2.21 µg/mL) | MIC [8]: 10 µM (≈ 14.7 µg/mL) | MIC (Pseudomonas aeruginosa): 50 µM (≈ 73.6 µg/mL) | MIC (Escherichia coli B): 3.8 µM (≈ 5.6 µg/mL)

Structure (SMILES): NC(=O)[C@H](Cc1ccccc1)NC(=O)[C@H](Cc1c[nH]c2ccccc12)NC(=O)[C@H](Cc1c[nH]c2ccccc12)NC(=O)[C@H](Cc1c[nH]c2ccccc12)NC(=O)[C@H](CCCN=C(N)N)NC(=O)[C@H](CCCN=C(N)N)NC(=O)[C@H](CCCN=C(N)N)NC(=O)[C@H](Cc1ccccc1)NC(=O)[C@H](Cc1c[nH]c2ccccc12)NC(=O)[C@H](Cc1c[nH]c2ccccc12)NC(=O)[C@H](Cc1c[nH]c2ccccc12)NC(=O)[C@H](CCCN=C(N)N)NC(=O)[C@H](CCCN=C(N)N)NC(=O)[C@@H](N)CCCN=C(N)N [RRRWWWFRRRWWWF]
MIC (Streptococcus mutans): 6.76 µM (≈ 16 µg/mL)

Structure (SMILES): NC(N)=NCCC[C@H](NC(=O)[C@H](Cc1c[nH]c2ccccc12)NC(=O)[C@H](CCCN=C(N)N)NC(=O)[C@H](Cc1c[nH]c2ccccc12)NC(=O)[C@H](CCCN=C(N)N)NC(=O)[C@H](Cc1c[nH]c2ccccc12)NC(=O)[C@@H](N)CCCN=C(N)N)C(=O)O [RWRWRWR]
MIC (Streptococcus mutans): 26.6 µM (≈ 32 µg/mL)
